Legend:
Lolium multiflorum [1] = test: Glasshouse post-emergence test, visual damage, Table B1-1; type: in vivo
Description: Seeds of a variety of test species are sown in standard soil in pots. For each treatment, three replicate pots containing 10-15 plants per one-inch pot were sprayed at the 2-3 leaf stage. Clethodim and Compound (Ic) were each applied at 15, 30, 60 and 120 g ai/ha. The test plants are then grown in a glasshouse under controlled conditions in a glasshouse (at 24/16° C., day/night; 14 hours light; 65% humidity) and watered twice daily. […]

Lolium multiflorum [2] = test: Further glasshouse test versus other ACCase-inhibiting herbicides, Table B2-1; type: in vivo; conditions: 21 days after application
Text: Further tests were employed to test the efficacy of a compound of Formula I versus other ACCase-inhibiting herbicides. The five main targets were Lolium multiflorum, Eleusine indica, Digitaria insularis, Sorghum halepense and Echinochloa crus-galli. Collectively, the populations contained all the major target-site resistance mutations affecting ACCase herbicides. Two L. multiflorum (LM-NTSR-1 and LM-NTSR-2) and one E. crus-galli (ECG-NTSR-1) populations were characterised exclusively by non-target-site resistance (“NTSR”). The target-site resistant L. multiflorum and E. indication populations were 100% homozygous for different ACCase mutations whilst the D. insularis, S. halepense and E. crus-galli samples contained a mixture of homozygous wild and mutant individuals at different genotypic frequencies. Additional underlying NTSR cannot be ruled out in the populations characterised by target-site resistance.
Around 50 seeds of each of the 24 weed populations were sown in 12-cm pots containing a mixture of peat and compost in a 1:1 ratio. The pots were watered, fertilised and kept in controlled glasshouse conditions set at 24° C./16 hr day, 18° C. night, 65% relative humidity, and a photon flux density of approximately 250 μmol quanta m^−2 s^−1 for Lolium multiflorum. The E. indica, D. insularis, S. halepense and E. crus-galli plants were kept in a separate glasshouse bay characterised by a 17 H photoperiod of 180 μmol m^−2 s^−1 with temperatures of 25° C. day and 19° C. night and 65% relative humidity. When the plants were at the two to four-leaf stage, they were treated with the various ACCase-inhibiting herbicides at 0, 15, 30, 60, 120 and 240 g ai ha^−1 in a spray cabinet mounted with a single mobile Teejet flat fan nozzle (11002VS) calibrated to deliver 200 L ha^−1 at 200 kPa. The L. multiflorum populations were treated by a compound of Formula Ic, clodinafop-propargyl, pinoxaden, cycloxydim and clethodim and the warm season grass weeds E. indica, D. insularis, S. halepense and E. crus-galli were sprayed with a Compound Ic and the commonly employed haloxyfop-methyl and clethodim. Three replicate pots were used per population. Plants were assessed for visual damage compared to the untreated control 21 days after application (0=0% damage; 100=100% damage).

## CC#Cc1ccc(C2=C(OC(=O)OC)C3CCC(C3)C2=O)c(OC)c1 (centres unmarked) [Compound Ic]
Lolium multiflorum [1]; biotype CC2027 (homozygous), 15 g/ha, 14 days after application
  visual damage: 100%
Lolium multiflorum [1]; biotype CC2027 (homozygous), 30 g/ha, 14 days after application
  visual damage: 100%
Lolium multiflorum [1]; biotype CC2027 (homozygous), 60 g/ha, 14 days after application
  visual damage: 100%
Lolium multiflorum [1]; biotype CC2027 (homozygous), 120 g/ha, 14 days after application
  visual damage: 100%
Lolium multiflorum [1]; biotype GG2078 (homozygous), 15 g/ha, 14 days after application
  visual damage: 40%
Lolium multiflorum [1]; biotype GG2078 (homozygous), 30 g/ha, 14 days after application
  visual damage: 100%
Lolium multiflorum [1]; biotype GG2078 (homozygous), 60 g/ha, 14 days after application
  visual damage: 100%
Lolium multiflorum [1]; biotype GG2078 (homozygous), 120 g/ha, 14 days after application
  visual damage: 100%
Lolium multiflorum [1]; biotype LL1781 (homozygous), 15 g/ha, 14 days after application
  visual damage: 100%
Lolium multiflorum [1]; biotype LL1781 (homozygous), 30 g/ha, 14 days after application
  visual damage: 100%
Lolium multiflorum [1]; biotype LL1781 (homozygous), 60 g/ha, 14 days after application
  visual damage: 100%
Lolium multiflorum [1]; biotype LL1781 (homozygous), 120 g/ha, 14 days after application
  visual damage: 100%
Lolium multiflorum [1]; biotype NN2041 (homozygous), 15 g/ha, 14 days after application
  visual damage: 47%
Lolium multiflorum [1]; biotype NN2041 (homozygous), 30 g/ha, 14 days after application
  visual damage: 100%
Lolium multiflorum [1]; biotype NN2041 (homozygous), 60 g/ha, 14 days after application
  visual damage: 100%
Lolium multiflorum [1]; biotype NN2041 (homozygous), 120 g/ha, 14 days after application
  visual damage: 100%
Lolium multiflorum [1]; biotype RR2088 (homozygous), 15 g/ha, 14 days after application
  visual damage: 100%
Lolium multiflorum [1]; biotype RR2088 (homozygous), 30 g/ha, 14 days after application
  visual damage: 100%
Lolium multiflorum [1]; biotype RR2088 (homozygous), 60 g/ha, 14 days after application
  visual damage: 100%
Lolium multiflorum [1]; biotype RR2088 (homozygous), 120 g/ha, 14 days after application
  visual damage: 100%
Lolium multiflorum [1]; biotype SS1999 (homozygous), 15 g/ha, 21 DAA
  visual damage: 85%
Lolium multiflorum [1]; biotype SS1999 (homozygous), 30 g/ha, 21 DAA
  visual damage: 100%
Lolium multiflorum [1]; biotype SS1999 (homozygous), 60 g/ha, 21 DAA
  visual damage: 100%
Lolium multiflorum [1]; biotype SS1999 (homozygous), 120 g/ha, 21 DAA
  visual damage: 100%
Lolium multiflorum [1]; biotype Sensitive, 15 g/ha, 14 days after application
  visual damage: 100%
Lolium multiflorum [1]; biotype Sensitive, 30 g/ha, 14 days after application
  visual damage: 100%
Lolium multiflorum [1]; biotype Sensitive, 60 g/ha, 14 days after application
  visual damage: 100%
Lolium multiflorum [1]; biotype Sensitive, 120 g/ha, 14 days after application
  visual damage: 100%
Lolium multiflorum [2]; biotype C2088R, 15 g/ha
  visual damage: 100%
Lolium multiflorum [2]; biotype C2088R, 30 g/ha
  visual damage: 100%
Lolium multiflorum [2]; biotype C2088R, 60 g/ha
  visual damage: 100%
Lolium multiflorum [2]; biotype C2088R, 120 g/ha
  visual damage: 100%
Lolium multiflorum [2]; biotype C2088R, 240 g/ha
  visual damage: 100%
Lolium multiflorum [2]; biotype D2078G, 15 g/ha
  visual damage: 20%
Lolium multiflorum [2]; biotype D2078G, 30 g/ha
  visual damage: 90%
Lolium multiflorum [2]; biotype D2078G, 60 g/ha
  visual damage: 100%
Lolium multiflorum [2]; biotype D2078G, 120 g/ha
  visual damage: 100%
Lolium multiflorum [2]; biotype D2078G, 240 g/ha
  visual damage: 100%
Lolium multiflorum [2]; biotype I1781L, 15 g/ha
  visual damage: 100%
Lolium multiflorum [2]; biotype I1781L, 30 g/ha
  visual damage: 100%
Lolium multiflorum [2]; biotype I1781L, 60 g/ha
  visual damage: 100%
Lolium multiflorum [2]; biotype I1781L, 120 g/ha
  visual damage: 100%
Lolium multiflorum [2]; biotype I1781L, 240 g/ha
  visual damage: 100%
Lolium multiflorum [2]; biotype Sensitive, 15 g/ha
  visual damage: 100%
Lolium multiflorum [2]; biotype Sensitive, 30 g/ha
  visual damage: 100%
Lolium multiflorum [2]; biotype Sensitive, 60 g/ha
  visual damage: 100%
Lolium multiflorum [2]; biotype Sensitive, 120 g/ha
  visual damage: 100%
Lolium multiflorum [2]; biotype Sensitive, 240 g/ha
  visual damage: 100%
Lolium multiflorum [2]; biotype W1999S, 15 g/ha
  visual damage: 85%
Lolium multiflorum [2]; biotype W1999S, 30 g/ha
  visual damage: 100%
Lolium multiflorum [2]; biotype W1999S, 60 g/ha
  visual damage: 100%
Lolium multiflorum [2]; biotype W1999S, 120 g/ha
  visual damage: 100%
Lolium multiflorum [2]; biotype W1999S, 240 g/ha
  visual damage: 100%
Lolium multiflorum [2]; biotype W2027C, 15 g/ha
  visual damage: 88%
Lolium multiflorum [2]; biotype W2027C, 30 g/ha
  visual damage: 100%
Lolium multiflorum [2]; biotype W2027C, 60 g/ha
  visual damage: 100%
Lolium multiflorum [2]; biotype W2027C, 120 g/ha
  visual damage: 100%
Lolium multiflorum [2]; biotype W2027C, 240 g/ha
  visual damage: 100%
Lolium multiflorum [2]; population LM-NTSR-1 (non-target-site resistance), 15 g/ha
  visual damage: 93%
Lolium multiflorum [2]; population LM-NTSR-1 (non-target-site resistance), 30 g/ha
  visual damage: 100%
Lolium multiflorum [2]; population LM-NTSR-1 (non-target-site resistance), 60 g/ha
  visual damage: 100%
Lolium multiflorum [2]; population LM-NTSR-1 (non-target-site resistance), 120 g/ha
  visual damage: 100%
Lolium multiflorum [2]; population LM-NTSR-1 (non-target-site resistance), 240 g/ha
  visual damage: 100%
Lolium multiflorum [2]; population LM-NTSR-2 (non-target-site resistance), 15 g/ha
  visual damage: 48%
Lolium multiflorum [2]; population LM-NTSR-2 (non-target-site resistance), 30 g/ha
  visual damage: 82%
Lolium multiflorum [2]; population LM-NTSR-2 (non-target-site resistance), 60 g/ha
  visual damage: 87%
Lolium multiflorum [2]; population LM-NTSR-2 (non-target-site resistance), 120 g/ha
  visual damage: 100%
Lolium multiflorum [2]; population LM-NTSR-2 (non-target-site resistance), 240 g/ha
  visual damage: 100%
